Data on eight compounds can be found in ChEMBL document CHEMBL1201862, “PubChem BioAssay data set” (2004).

Test systems include HCT-15; MDA-MB-231; HT-29; HCT-116; SK-MEL-28; A498; OVCAR-4; OVCAR-8; OVCAR-3; K562; OVCAR-5; SR; SK-OV-3; TK-10; Hs-578T; RXF 393; Malme-3M; UACC-257; T47D; HL-60.
Common to all, as to assay: NCI anticancer screen, dose series, 48 h

The structures appear in SMILES notation.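 Assay format: 96-well plates, 48-hour exposure. Abbreviation: GI50, concentration required for 50% inhibition of growth.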 Calls of active or inactive are those of the source. Cut-off read from the data, not from the text of the source: active = GI50 up to about 1.1 µM and inactive = higher. Bounds are passed on as bounds.

Take `CCC(C)C(NC(=O)C(CCCC[N+](=N)N)NC(=O)C(CCCC[N+](=N)N)NC(=O)c1ccc(OC)cc1)C(=O)NC(CCCC[N+](=N)N)C(=O)N1CCCC1C(=O)NC(CCCCN)C(=O)NC(CC(C)C)C(N)=O` (stereo not given): the GI50 with HCT-15 is greater than 100 µM; in the assay with MDA-MB-231, > 100 µM (inactive); in the assay with HT-29 it was > 100 µM (inactive); in the assay with HCT-116, > 100 µM (inactive); with SK-MEL-28, > 100 µM (inactive); in the assay on A498 it was > 100 µM (inactive). In addition, the GI50 with OVCAR-4, in the assay on OVCAR-8, in the assay on OVCAR-3, with K562, with OVCAR-5 and in the assay on SR was > 100 µM (inactive) in each case. The GI50 in the assay with SK-OV-3, in the assay on TK-10, in the assay on Hs-578T, with RXF 393, in the assay on Malme-3M and with UACC-257 was > 100 µM (inactive) in each case. For the same compound, the GI50 in the assay on T47D is > 100 µM (inactive).
As to `COc1ccccc1-n1nnc2c(N)nc(N)nc21`, the GI50 is greater than 100 µM in the assay with HCT-15; > 100 µM (inactive) in the assay on MDA-MB-231; > 100 µM (inactive) with HT-29; > 100 µM (inactive) in the assay on HCT-116; > 100 µM (inactive) with SK-MEL-28; > 100 µM (inactive) in the assay on A498. In addition, the GI50 in the assay on OVCAR-4, with OVCAR-8, in the assay with OVCAR-3, in the assay with K562, in the assay with OVCAR-5 and in the assay on SR was > 100 µM (inactive) throughout. Besides, the GI50 with SK-OV-3, in the assay on TK-10, with Hs-578T, in the assay on Malme-3M, in the assay with UACC-257 and with T47D was > 100 µM (inactive) in each case. The GI50 in the assay on HL-60 is > 100 µM (inactive).
Turning to `CC(C)Nc1n[nH]c(=O)n1C(C)C`, the GI50 in the assay with HCT-15 was greater than 100 µM; in the assay on MDA-MB-231, > 100 µM (inactive); in the assay with HT-29, > 100 µM (inactive); with HCT-116, > 100 µM (inactive); with SK-MEL-28 it was > 100 µM (inactive); with A498, > 100 µM (inactive). Moreover, the GI50 in the assay with OVCAR-8, with OVCAR-3, in the assay on K562, in the assay on OVCAR-5, in the assay with SR and in the assay on SK-OV-3 was > 100 µM (inactive) throughout. Moreover, the GI50 with TK-10 was > 100 µM (inactive); with Hs-578T it was 49.9 µM (inactive); with UACC-257, > 100 µM (inactive); in the assay with T47D it was > 100 µM (inactive); in the assay with HL-60, > 100 µM (inactive).
As for `COc1ccc(C2=C(N)c3cc(OC)ccc3C2=O)cc1`, the GI50 in the assay on HCT-15 is greater than 100 µM; in the assay with MDA-MB-231 it was > 100 µM (inactive); in the assay with HT-29 it was > 100 µM (inactive); in the assay with HCT-116, > 100 µM (inactive); in the assay on SK-MEL-28, > 100 µM (inactive); with A498, > 100 µM (inactive). Besides, the GI50 was > 100 µM (inactive) in the assay with OVCAR-4; > 100 µM (inactive) with OVCAR-8; > 100 µM (inactive) in the assay with OVCAR-3; > 100 µM (inactive) in the assay with OVCAR-5; 23.8 µM (inactive) in the assay with SR; > 100 µM (inactive) with SK-OV-3. For the same compound, the GI50 was 4.25 µM (inactive) in the assay on Hs-578T; > 100 µM (inactive) in the assay with Malme-3M; > 100 µM (inactive) in the assay on UACC-257; 36.7 µM (inactive) in the assay on T47D; > 100 µM (inactive) in the assay with HL-60.
Regarding `OC12C3C4CC5C(C4[C@@H]1Br)C2[C@@](O)(c1c(F)c(F)c(F)c(F)c1F)C53` (stereo not given in full), the GI50 in the assay with HCT-15 is 39.8 µM; in the assay with MDA-MB-231, > 100 µM (inactive); in the assay on HT-29 it was 27.5 µM (inactive); with HCT-116 it was 30.8 µM (inactive); with SK-MEL-28, 39.8 µM (inactive); in the assay with A498, 33.2 µM (inactive). Moreover, the GI50 is 28.2 µM (inactive) in the assay on OVCAR-4; 32 µM (inactive) with OVCAR-8; 23.3 µM (inactive) with OVCAR-3; 21.4 µM (inactive) with K562; 68.2 µM (inactive) with OVCAR-5; 21.3 µM (inactive) with SR. For the same compound, the GI50 with TK-10 is 47.8 µM (inactive); with Hs-578T, 22.2 µM (inactive); with RXF 393, 24.3 µM (inactive); with UACC-257, 24.8 µM (inactive); in the assay with T47D it was 41.4 µM (inactive); in the assay on HL-60 it was 38.2 µM (inactive).
Turning to `CN(C)c1nc(Cl)c2c(-c3ccccc3)c(-c3ccccc3)oc2n1`, the GI50 in the assay with HCT-15 is 31.6 µM; with MDA-MB-231 it was 43 µM (inactive); in the assay on HT-29, 58.7 µM (inactive); with HCT-116 it was 31.2 µM (inactive); with SK-MEL-28, > 100 µM (inactive); in the assay on A498, > 100 µM (inactive). Besides, the GI50 was 75.7 µM (inactive) with OVCAR-4; > 100 µM (inactive) in the assay with OVCAR-8; 42.1 µM (inactive) with K562; > 100 µM (inactive) in the assay with OVCAR-5; 21.8 µM (inactive) with SR; 58.3 µM (inactive) in the assay on SK-OV-3. Moreover, the GI50 in the assay with TK-10 was > 100 µM (inactive); in the assay on Hs-578T, 62.1 µM (inactive); in the assay on RXF 393, 19.4 µM (inactive); in the assay with UACC-257, > 100 µM (inactive); in the assay with T47D, 83 µM (inactive); in the assay with HL-60 it was 12.2 µM (inactive).
For the compound `Oc1ccccc1/C=N/c1ccc(Oc2ccc(Cl)cc2)c(Cl)c1`, the GI50 in the assay with HCT-15 was 16.3 µM; in the assay on MDA-MB-231, 16.1 µM (inactive); in the assay with HT-29 it was 19.5 µM (inactive); with HCT-116 it was 16.7 µM (inactive); with SK-MEL-28 it was 25 µM (inactive); in the assay with A498, 11.5 µM (inactive). Also, the GI50 is 22.4 µM (inactive) in the assay with OVCAR-4; 19.9 µM (inactive) in the assay on OVCAR-8; 15 µM (inactive) in the assay on OVCAR-3; 26.1 µM (inactive) with OVCAR-5; 38.2 µM (inactive) in the assay on SR; 29.8 µM (inactive) in the assay on SK-OV-3. Also, the GI50 with TK-10 is 39.5 µM (inactive); in the assay on Hs-578T, 19.7 µM (inactive); in the assay on Malme-3M it was 19.5 µM (inactive); in the assay on UACC-257, 28.6 µM (inactive); in the assay with T47D it was 5.97 µM (inactive); with HL-60, 17.9 µM (inactive).
Regarding `COc1cc([C@@H]2c3cc4c(cc3C[C@H]3COC(=O)[C@@H]32)OCO4)cc(OC)c1OC` [DESOXYPODOPHYLLOTOXIN], the GI50 with MDA-MB-231 is < 0.01 µM (active); in the assay with SK-MEL-28, 0.0125 µM (active); in the assay with A498, 0.00695 µM (active); in the assay with OVCAR-8, 0.00721 µM (active); in the assay with K562 it was 0.0074 µM (active); with OVCAR-5, > 10.8 µM (inactive). For the same compound, the GI50 was 0.00376 µM (active) in the assay with SR; 0.0803 µM (active) in the assay with SK-OV-3; < 0.01 µM (active) in the assay on TK-10; 0.00204 µM (active) in the assay on Hs-578T; 0.0149 µM (active) in the assay with Malme-3M; 0.00828 µM (active) in the assay with UACC-257. Further, the GI50 in the assay on T47D is 0.003 µM (active); with HL-60 it was 0.00713 µM (active).
